Here are results for 27 compounds from article PMC11785640, “Structure-based inhibition of acetylcholinesterase and butyrylcholinesterase with 2-Aryl-6-carboxamide benzoxazole derivatives: synthesis, enzymatic assay, and in silico studies” (Molecular Diversity, 2024).

Structures are written as SMILES.

For one assay, the target named is AChE (Electrophorus electricus, UniProt O42275). Nature of the assay: biochemical. In kind it is biochemical. The conditions noted are these: for Ki: from Lineweaver-Burk graphs, mean ± SD, triplicate; for Selectivity index (AChE/BChE): ratio AChE/BChE. How it is done: (§1) These analogs were dissolved in DMSO at an initial concentration of 1 mg/mL. Around 1% of DMSO was present in the final reaction mixture. Acetylthiocholine iodide (AChI)/butyrylcholine iodide (BChI) were used as substrates for enzymatic reactions. […] The mixture was incubated at 20 °C for 20 min. Then, 50 µL of 5,5’-dithio-bis 2-nitro-benzoic acid (DTNB, 0.5 mM) and AChI/BChI were added and enzymatic reactions were initiated.
Chain of AChE (O42275 24-633): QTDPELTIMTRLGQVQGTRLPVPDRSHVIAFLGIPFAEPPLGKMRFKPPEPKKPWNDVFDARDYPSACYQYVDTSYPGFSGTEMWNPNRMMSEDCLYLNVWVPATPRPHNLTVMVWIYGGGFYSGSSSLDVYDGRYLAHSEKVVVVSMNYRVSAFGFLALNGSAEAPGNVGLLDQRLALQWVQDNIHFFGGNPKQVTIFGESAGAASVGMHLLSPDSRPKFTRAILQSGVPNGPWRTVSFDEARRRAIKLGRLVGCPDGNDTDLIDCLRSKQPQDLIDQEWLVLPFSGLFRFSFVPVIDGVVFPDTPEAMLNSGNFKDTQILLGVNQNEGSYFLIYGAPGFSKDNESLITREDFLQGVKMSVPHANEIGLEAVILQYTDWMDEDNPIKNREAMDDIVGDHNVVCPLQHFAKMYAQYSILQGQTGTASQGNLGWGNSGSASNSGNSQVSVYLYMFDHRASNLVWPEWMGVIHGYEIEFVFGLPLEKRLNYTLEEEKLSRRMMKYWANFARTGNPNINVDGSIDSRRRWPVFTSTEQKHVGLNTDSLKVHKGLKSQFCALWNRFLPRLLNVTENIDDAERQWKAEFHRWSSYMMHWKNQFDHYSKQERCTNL
(§2) Lineweaver-Burk graphs were used for the calculation of Ki and the other parameters as described in prior studies. The Ki values were taken out from this graph. All analyses were conducted independently in triplicate, and result data are expressed as mean values ± SD [59].

The next assay has as its target BChE (Equus caballus, UniProt P81908). Nature of the assay: biochemical. In kind it is biochemical. The conditions noted are these: for Ki: from Lineweaver-Burk graphs, mean ± SD, triplicate. How it is done: as §1, §2

Chain of BChE (P81908 whole entry): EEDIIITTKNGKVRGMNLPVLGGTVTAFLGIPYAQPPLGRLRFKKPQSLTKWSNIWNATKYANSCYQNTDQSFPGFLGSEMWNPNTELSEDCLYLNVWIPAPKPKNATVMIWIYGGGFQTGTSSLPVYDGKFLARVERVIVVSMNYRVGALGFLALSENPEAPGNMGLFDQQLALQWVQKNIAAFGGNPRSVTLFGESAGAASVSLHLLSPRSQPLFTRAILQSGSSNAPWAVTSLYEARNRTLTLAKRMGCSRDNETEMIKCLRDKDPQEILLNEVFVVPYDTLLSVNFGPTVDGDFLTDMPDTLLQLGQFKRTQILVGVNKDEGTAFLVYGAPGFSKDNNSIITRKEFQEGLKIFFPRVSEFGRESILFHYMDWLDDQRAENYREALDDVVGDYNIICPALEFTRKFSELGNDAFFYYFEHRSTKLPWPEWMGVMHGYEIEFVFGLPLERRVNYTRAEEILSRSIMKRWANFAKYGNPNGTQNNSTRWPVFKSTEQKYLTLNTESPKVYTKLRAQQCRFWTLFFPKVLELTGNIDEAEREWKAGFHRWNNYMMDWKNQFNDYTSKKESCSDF

For the compound `CN(C)C(=O)c1ccc2nc(-c3ccccc3)oc2c1` [Compound 7, N,N -dimethyl-2-phenylbenzo[d]oxazole-6-carboxamide], on AChE, the IC50 turned out to be 32.9 nM, the Ki came to 23 ± 1.7 nM and the “Selectivity index (AChE/BChE)” value was 0.45. In addition, at BChE, the IC50 was 65.8 nM and the affinity, expressed as Ki, was 50.7 ± 6.43 nM.
The matching figures for `CCN(CC)C(=O)c1ccc2nc(-c3ccccc3)oc2c1` [Compound 8, N,N-diethyl-2-phenylbenzo[d]oxazole-6-carboxamide]: 34 nM, 30.6 ± 3.34 nM, 0.40, 74 nM and 77 ± 5.25 nM.
The matching figures for `CCCN(CCC)C(=O)c1ccc2nc(-c3ccccc3)oc2c1` [Compound 9, 2-Phenyl-N,Ndipropylbenzo[d]oxazole-6-carboxamide]: 48.8 nM, 59.4 ± 3.69 nM, 0.53, 116 nM and 111 ± 4.67 nM.
The matching figures for `O=C(c1ccc2nc(-c3ccccc3)oc2c1)N1CCCC1` [Compound 10]: 35.7 nM, 46.5 ± 6.59 nM, 1.27, 51.4 nM and 36.6 ± 11 nM.
Regarding `O=C(c1ccc2nc(-c3ccccc3)oc2c1)N1CCCCC1` [Compound 11], at AChE, 21.4 nM corresponded to half-maximal inhibition (IC50), the Ki worked out at 18.6 ± 2.58 nM and the “Selectivity index (AChE/BChE)” value is 0.25. Besides, at BChE, half-maximal inhibition (IC50) was put at 61.2 nM and the affinity, expressed as Ki, was 74.4 ± 16.9 nM.
The matching figures for `O=C(c1ccc2nc(-c3ccccc3)oc2c1)N1CCOCC1` [Compound 12]: 29.6 nM, 28.6 ± 3.96 nM, 0.88, 34.5 nM and 32.3 ± 3.25 nM.
As to `CN(C)C(=O)c1ccc2nc(-c3ccc(-c4ccccc4)cc3)oc2c1` [Compound 13, 2-([1,1’-Biphenyl]-4-yl)-N,N-dimethylbenzo[d]oxazole-6-carboxamide], at AChE, the IC50 was 33.2 nM, the affinity corresponds to a Ki of 29.8 ± 1.02 nM and the “Selectivity index (AChE/BChE)” value was 0.46. On BChE, this compound came in with an IC50 of 63.5 nM and a Ki of 65.4 ± 14.1 nM.
In the case of `CCN(CC)C(=O)c1ccc2nc(-c3ccc(-c4ccccc4)cc3)oc2c1` [Compound 14], at AChE, the midpoint of inhibition, the IC50, lay at 30.8 nM; affinity was put at a Ki of 19.8 ± 3.69 nM; the “Selectivity index (AChE/BChE)” value is given as 0.26. At BChE, this compound returned an IC50 of 84.6 nM and a Ki of 75.3 ± 13.8 nM.
The matching figures for `CCCN(CCC)C(=O)c1ccc2nc(-c3ccc(-c4ccccc4)cc3)oc2c1` [Compound 15, 2-([1,1’-Biphenyl]-4-yl)-N,N-dipropylbenzo[d]oxazole-6-carboxamide]: 40.7 nM, 38.2 ± 0.66 nM, 0.40, 113 nM and 95.7 ± 7.32 nM.
The matching figures for `O=C(c1ccc2nc(-c3ccc(-c4ccccc4)cc3)oc2c1)N1CCCC1` [Compound 16, (2-([1,1’-Biphenyl]-4-yl)benzo[d]oxazol-6-yl)(pyrrolidin-1-yl)methanone]: 26.3 nM, 26.7 ± 5.13 nM, 0.32, 86.2 nM and 84 ± 12.4 nM.
The matching figures for `O=C(c1ccc2nc(-c3ccc(-c4ccccc4)cc3)oc2c1)N1CCCCC1` [Compound 17, (2-([1,1’-Biphenyl]-4-yl)benzo[d]oxazol-6-yl)(piperidin-1-yl)methanone]: 20.6 nM, 18.4 ± 3.33 nM, 0.37, 58.9 nM and 49.2 ± 11.1 nM.
As to `O=C(c1ccc2nc(-c3ccc(-c4ccccc4)cc3)oc2c1)N1CCOCC1` [Compound 18, (2-([1,1’-Biphenyl]-4-yl)benzo[d]oxazol-6-yl)(morpholino)methanone], on AChE, half-maximal inhibition (IC50) was put at 21.3 nM, the Ki is 20.9 ± 4.22 nM and the “Selectivity index (AChE/BChE)” value amounted to 0.37. On BChE, it took 65.1 nM to reach half-maximal inhibition (IC50) and the affinity corresponds to a Ki of 56.7 ± 1.57 nM.
On to `CN(C)C(=O)c1ccc2nc(-c3cccc4ccccc34)oc2c1` [Compound 19, N,Ndimethyl-2-(naphthalen-1-yl)benzo[d]oxazole-6-carboxamide], for which, at AChE, the IC50 turned out to be 39.6 nM, affinity was put at a Ki of 38.8 ± 2.96 nM and the “Selectivity index (AChE/BChE)” value amounted to 0.32. On BChE, this compound came in with an IC50 of 142 nM and a Ki of 121 ± 15.5 nM.
`CCN(CC)C(=O)c1ccc2nc(-c3cccc4ccccc34)oc2c1` [Compound 20, N,Ndiethyl-2-(naphthalen-1-yl)benzo[d]oxazole-6-carboxamide]: on AChE, the IC50 came out at 53.6 nM; the affinity, expressed as Ki, was 48.5 ± 9.97 nM; the “Selectivity index (AChE/BChE)” value worked out at 0.36. In addition, at BChE, the IC50 came to 174 nM and affinity was put at a Ki of 136 ± 30.7 nM.
The matching figures for `CCCN(CCC)C(=O)c1ccc2nc(-c3cccc4ccccc34)oc2c1` [Compound 21, 2-(Naphthalen-1-yl)-N,Ndipropylbenzo[d]oxazole-6-carboxamide]: 67 nM, 71.6 ± 12 nM, 0.50, 188 nM and 145 ± 11.2 nM.
`O=C(c1ccc2nc(-c3cccc4ccccc34)oc2c1)N1CCCC1` [Compound 22]: at AChE, the IC50 is 43 nM, the Ki amounted to 41.9 ± 5.64 nM and the “Selectivity index (AChE/BChE)” value was determined as 0.58. At BChE, this compound gave an IC50 of 124 nM and a Ki of 72.5 ± 5.66 nM.
The matching figures for `O=C(c1ccc2nc(-c3cccc4ccccc34)oc2c1)N1CCCCC1` [Compound 23]: 24.6 nM, 20.2 ± 1.47 nM, 0.29, 98.3 nM and 69.4 ± 11.3 nM.
As for `O=C(c1ccc2nc(-c3cccc4ccccc34)oc2c1)N1CCOCC1` [Compound 24, Morpholino(2-(naphthalen-1-yl)benzo[d]oxazol-6-yl)methanone], at AChE, the IC50 turned out to be 50.9 nM, the Ki amounted to 45.7 ± 1.65 nM and the “Selectivity index (AChE/BChE)” value is 0.90. In addition, at BChE, the IC50 came to 83.8 nM and the Ki is 50.7 ± 14 nM.
As to `CN(C)C(=O)c1ccc2nc(-c3ccncc3)oc2c1` [Compound 25, N,Ndimethyl-2-(pyridin-4-yl)benzo[d]oxazole-6-carboxamide], on AChE, it took 54.7 nM to reach half-maximal inhibition (IC50), the Ki was 85.3 ± 11.2 nM and the “Selectivity index (AChE/BChE)” value turned out to be 1.28. In addition, at BChE, the IC50 was 93.6 nM and the affinity corresponds to a Ki of 66.4 ± 13.6 nM.
For `CCN(CC)C(=O)c1ccc2nc(-c3ccncc3)oc2c1` [Compound 26, N,Ndiethyl-2-(pyridin-4-yl)benzo[d]oxazole-6-carboxamide], on AChE, 48.1 nM corresponded to half-maximal inhibition (IC50), the Ki was 83.1 ± 1.33 nM and the “Selectivity index (AChE/BChE)” value came out at 1.53. At BChE, 76.2 nM corresponded to half-maximal inhibition (IC50) and the Ki worked out at 54.4 ± 4.85 nM.
Turning to `CCCN(CCC)C(=O)c1ccc2nc(-c3ccncc3)oc2c1` [Compound 27, N,Ndipropyl-2-(pyridin-4-yl)benzo[d]oxazole-6-carboxamide], at AChE, the IC50 amounted to 49.5 nM, the Ki stood at 50 ± 5.13 nM and the “Selectivity index (AChE/BChE)” value is listed as 0.72. At BChE, this compound yielded an IC50 of 87.1 nM and a Ki of 69.7 ± 4.1 nM.
Regarding `O=C(c1ccc2nc(-c3ccncc3)oc2c1)N1CCCC1` [Compound 28], on AChE, the IC50 turned out to be 40.5 nM, the Ki is 47.9 ± 4.7 nM and the “Selectivity index (AChE/BChE)” value is on record as 0.91. At BChE, this compound displayed an IC50 of 57.2 nM and a Ki of 52.9 ± 11.7 nM.
Turning to `O=C(c1ccc2nc(-c3ccncc3)oc2c1)N1CCCCC1` [Compound 29, Piperidin-1-yl(2-(pyridin-4-yl)benzo[d]oxazol-6-yl)methanone], the IC50 against AChE turned out to be 28 nM; against BChE, 54.1 nM. The Ki on AChE came out at 27.4 ± 2.53 nM; at BChE, 47.9 ± 8.42 nM.
Regarding `O=C(c1ccc2nc(-c3ccncc3)oc2c1)N1CCOCC1` [Compound 30, Morpholino(2-(pyridin-4-yl)benzo[d]oxazol-6-yl)methanone], at AChE, the IC50 worked out at 24.3 nM, the Ki worked out at 18.3 ± 4.37 nM and the “Selectivity index (AChE/BChE)” value was 0.40. Besides, on BChE, the IC50 came to 49.7 nM and the Ki worked out at 45.4 ± 3.04 nM.
The matching figures for `CN(C)C(=O)c1ccc2nc(-c3ccc[nH]3)oc2c1` [Compound 31, N,N-dimethyl-2-(1 H-pyrrol-2-yl)benzo[d]oxazole-6-carboxamide]: 36.8 nM, 30.7 ± 2.21 nM, 0.73, 47.3 nM and 42 ± 6.32 nM.
The matching figures for `CCN(CC)C(=O)c1ccc2nc(-c3ccc[nH]3)oc2c1` [Compound 32, N,N-diethyl-2-(1 H-pyrrol-2-yl)benzo[d]oxazole-6-carboxamide]: 41.7 nM, 47.5 ± 9.8 nM, 2.07, 30.1 nM and 23 ± 1.52 nM.
The matching figures for `CCCN(CCC)C(=O)c1ccc2nc(-c3ccc[nH]3)oc2c1` [Compound 33, N,N-dipropyl-2-(1 H-pyrrol-2-yl)benzo[d]oxazole-6-carboxamide]: 40.2 nM, 26.1 ± 3.35 nM, 0.68, 55.5 nM and 38.5 ± 8.43 nM.
